# Experimental data: patent publication US8613905B2, “Diagnostic agent” (United Arab Emirates University, priority 2007, dated 2013)
# Entries after “also recorded” stand apart in the source; their conditions may differ.
# What was measured:
# [1] = target: T1, fresh or aggregated α-synuclein (Homo sapiens, UniProt P37840); test: ELISA: binding of biotinylated peptides to coated α-synuclein; details: for binding to coated fresh and aggregated α-synuclein: α-synuclein coated 20-200 pmol/well, peptides 200 pmol/well, FIG. 2; for binding to aggregated versus fresh α-synuclein: range of peptide concentrations, FIG. 3A, B; for binding to aggregated versus fresh α-synuclein / lowest binding concentration detected: α-synuclein coated at 100 pmol/well; for binding to coated aggregated α-synuclein: aggregated α-synuclein coated at 500 pmol/well, data not shown
# T1 construct: made in house; host or cells: Escherichia coli
# Description: Various concentrations of fresh, or aggregated α-synuclein solutions (20-200 pmol/well) were coated on a microtiter plate to dry overnight at 37° C. Aggregated α-synuclein was therefore fixed to the microtiter plate. Aggregated α-synuclein was produced either by aging, dopamine treatment or nitration as indicated on the figures. After washing with PBS containing 0.05% Tween-20 (PBST) and blocking with blocking buffer (PBS containing 2.5% gelatin and 0.05% Tween-20), the biotinylated peptides (200 pmol/well in PBS) or BSA protein (negative control) were added and incubated for 1.5 hrs at room temperature (RT).
# Binding of peptides to α-synuclein was quantified using enzyme-linked avidin. Briefly, the plates were washed three times with PBST before the addition of 100 μl/well of extravidin peroxidase diluted at 1:5,000 in blocking buffer. Plates were then washed three times with PBST before the addition of TMB peroxidase substrate. Plates were left for 15 minutes at RT for colour to develop. The reaction was stopped by addition 100 μl/well of 0.5M sulphuric acid and the plates were read at 450 nm in a spectrophotometer.
# The effect of peptide concentration on binding to a fixed concentration of α-synuclein was tested by coating microtiter plates as above with 100 or 200 pmol/well of α-synuclein. […] The lowest binding concentration detected for both peptides was 10 pmol/well. […] The lowest binding concentration detected for all three peptides was 10 pmol/well. The binding properties of peptides 6 & 7 to coated fresh or aged α-synuclein were also tested. The binding for peptides 6&7 was detectable when aggregated α-synuclein was coated at 500 pmol/well (data not shown).
# The lowest binding concentration detected for dopamine treated α-synuclein was 1 pmol/well. Dopamine treated and nitrated α-synuclein are physiological approximations of the soluble aggregates (or adducts) present during the early stages of synucleinopathic diseases.
# [2] = target: T1, fresh or aggregated α-synuclein; test: ELISA: coated peptides capturing free α-synuclein; type: binding; details: peptides coated 100 pmol/well; α-synuclein 0.001-200 pmol/well; FIG. 4
# Description: Peptides (100 pmol/well) were coated on a microtiter plate to dry overnight at 37° C. The peptides were therefore fixed to the microtiter plate. After washing with PBS containing 0.05% Tween 20 (PBST) and blocking with blocking buffer (PBS containing 2.5% gelatin and 0.05% Tween 20), various concentrations (0.001-200 pmol/well) of fresh or aggregated α-synuclein solution (produced by aging), or BSA protein (negative control) were added and incubated for 1.5 hrs at RT.
# Binding of α-synuclein to peptides was quantified using enzyme-linked antibody specific for α-synuclein. Briefly, the plates were washed three times with PBST before addition of the polyclonal rabbit α-synuclein antibody FL-140 at 1:1000 (in PBS). Plates were then washed three times with PBST before the addition of TMB peroxidase substrate. Plates were left for 15 min at RT for colour to develop. The reaction was stopped by addition 100 μl/well of 0.5M sulphuric acid and the plates were read at 450 nm in a spectrophotometer.
# aggregated α-synuclein = target: T2, aggregated α-synuclein (Homo sapiens, UniProt P37840); test: Immunogold assay (EM) on preformed α-synuclein aggregates; type: binding; details: 50 μM aggregated α-synuclein on grids; FIG. 6
# T2 construct: made in house; host or cells: Escherichia coli
# Description: Copper grids were placed on 50 μl of 50 μM aggregated α-synuclein for 1 hour and then washed on 50 μl of PBS for 2 minutes before being placed on 50 μl blocking buffer (Vector) for 1 hour 30 minutes. Grids were washed 5 times with PBS (5 minutes each) and then soaked in either […] peptide 5 (in blocking buffer) or blocking buffer only (negative control) for 1 hour 30 minutes at room temperature. Grids were then washed 5 times with PBS (5 minutes each) and soaked in 50 μl of streptavidin-gold label (1:50) in blocking buffer for 30 minutes at room temperature. Grids were again washed 5 times with PBS (5 minutes each) and soaked in 50 μl of uranyl acetate (2% in distilled water) for 1 minute at room temperature before viewing under a transmission electron microscope.
# [3] = target: T3, oligomeric α-synuclein (dopamine treated α-synuclein) (Homo sapiens, UniProt P37840); test: Dot blotting of biotinylated peptides on α-synuclein; type: binding; details: FIG. 11
# T3 construct: made in house; host or cells: Escherichia coli
# Description: The binding of the peptides to the oligomeric α-synuclein was also tested using dot blotting. Monomeric α-synuclein (fresh α-synuclein solution) and oligomeric α-synuclein (dopamine treated α-synuclein) was spotted onto a nitrocellulose membrane. After the samples had been dried at room temperature for 2 hrs, the membranes were blocked, and then anti-α-synuclein MAb 211 or biotinylated-peptides were added to the membranes and incubated for 1.5 hr at room temperature. After gentle washing the membranes were treated with Extravidin-peroxidase or anti-mouse-peroxidase as appropriate. The binding of 211 and the peptides was detected using ECL reagents (Pierce). As shown in FIG. 11 the biotinylated-peptides bind specifically to the oligomeric but not monomeric forms of α-synuclein.
# [4] = target: T4, α-synuclein aggregates in TET-off regulated SH-SY5Y cells expressing A53T (Homo sapiens, UniProt P37840, A53T); test: Binding to α-synuclein aggregates in cell model; type: cell-based; details: 5 μM for 1, 2 & 4 hrs respectively (OR5, 6, 7); FIG. 13
# T4 construct: expressed in transfected cells; host or cells: inducible TET-off regulated SH-SY5Y cells (from Dr. Kostas Vekrellis)
# Description: This example utilises the inducible TET-off regulated SH-SY5Y system from Dr. Kostas Vekrellis (Foundation For Biomedical Research Academy of Athens). These transfected cells have shown to produce both soluble and insoluble aggregates of α-synuclein. The binding of the OR compounds to α-synuclein aggregates was investigated in this cell model.
# Cells expressing A53T were grown on coverslips in media without doxycycline and were differentiated for 7 days by adding retinoic acid at 10 μM. On day 6, cells were treated with 1 μM MG132 in media containing retinoic acid for 24 hrs. The biotinylated-OR5, 6 and 7 were added to the media at 5 μM for 1, 2 & 4 hrs respectively at 37° C.
# The media for the cells was then changed with fresh media without peptides and then incubated for another 15 mins for the cells to clear up the unbound peptides to α-synuclein aggregates. The cells were fixed and then treated with 0.2% Triton X in PBS for 15 minutes at RT, and after washing with PBS the blocking buffer, 0.5% BSA, was added.
# The cells were stained with anti-α-synuclein antibodies (MAb 211 or FL-140 (Santa Cruz Biotechnology)), and with Streptavidin-FITC (Sigma). α-synuclein aggregates were detected after staining with anti-mouse TRITC (Sigma) or anti-rabbit TRITC (Jackson ImmunoResearch Inc.) as appropriate.
# [5] = system: SH-SY5Y neuroblastoma cells; test: Uptake of peptides into living neuronal cells (confocal microscopy); type: cell-based, human; details: peptides at 50 μM
# Description: SH-SY5Y or M17 neuroblastoma cells were grown in 15 ml medium in confluent flasks before splitting each suspension into petri dishes and allowing cells to grow on coverslips (˜5×10^3/plate) until the next day. Cells were then incubated with different peptides at 50 μM in growing media (total volume=2 ml). […] After 15 min incubation with respective peptides, the cells were washed 3 times with PBS. 2 ml of fixing solution (4% paraformaldehyde in PBS) was added to the cells which were then incubated for 30 min at room temperature. Fixing buffer was removed and 2 ml of permeabilization buffer (0.2% Triton-X-100 in PBS) was added to the cells for 30 min at room temperature and then removed. 2 ml of Blocking buffer was added, left for 1 hour at RT and then removed before addition of 1:100 FITC [Avidin labelled Fluorescein] (Vector Labs) in blocking buffer. Cells were incubated for 1 hour and then washed twice with PBS 0.05% tween. The coverslips were removed and plated with the cell bearing surface downwards on a glass slide, with the addition of a drop of mounting medium (Dako Cytomation). Cells were then visualized under the confocal microscope.
substance,measurement,setting,value
Gd-DOTA-rrrrrrGvvaGK(biotin)-r [OR4],binding to coated fresh and aggregated α-synuclein,[1],more specific binding to the aggregated α-synuclein
same,capture of aggregated versus fresh α-synuclein by coated peptide,[2],captured more of the aggregated than the fresh α-synuclein
Gd-DOTA-rrrrrrGtvvaGK(biotin)-r [OR3],binding to coated fresh and aggregated α-synuclein,[1],more specific binding to the aggregated α-synuclein
Gd-DOTA-rGvvaGK(biotin)-rrrrrr [OR2],binding to aggregated versus fresh α-synuclein,[1],more binding to the aggregated than to the fresh α-synuclein
same,binding to coated fresh and aggregated α-synuclein,[1],high binding to both fresh and aggregated coated α-synuclein
same,lowest binding concentration detected,[1],10 pmol/well
Gd-DOTA-r-Sar-vva-Sar-K(biotin)-rrrrrr [OR5],"binding to aggregated α-synuclein generated by aging, dopamine treatment or nitration",[1]; FIG. 5,highly specific binding to all forms of aggregated α-synuclein
same,specificity for dopamine treated α-synuclein,[1]; FIG. 5,particularly high specificity
same,lowest binding concentration detected for dopamine treated α-synuclein,[1]; dopamine treated α-synuclein (soluble aggregates),1 pmol/well
same,"binding to preformed α-synuclein aggregates (streptavidin-gold, EM)",aggregated α-synuclein,bind to preformed α-synuclein aggregates; also recorded: binding
same,capture of aggregated versus fresh α-synuclein by coated peptide,[2],captured more of the aggregated than the fresh α-synuclein
same,binding to oligomeric versus monomeric α-synuclein (dot blot),[3],binding of biotinylated-peptide OR5 to α-synuclein oligomers
same,binding to α-synuclein aggregates formed inside cells,[4],bind to α-synuclein aggregates formed inside cells
Gd-DOTA-r-Sar-vva-Sar-K(biotin)-butadiamine [OR6],binding to coated aggregated α-synuclein,[1],detectable
same,incubation after which observed in living cells,[5],2 h
same,binding to α-synuclein aggregates formed inside cells,[4],bind to α-synuclein aggregates formed inside cells
Gd-DOTA-rGtvvaGK(biotin)-rrrrrr [OR1],binding to aggregated versus fresh α-synuclein,[1],more binding to the aggregated than to the fresh α-synuclein
same,binding to coated fresh and aggregated α-synuclein,[1],high binding to both fresh and aggregated coated α-synuclein
same,lowest binding concentration detected,[1],10 pmol/well
Gd-DOTA-r-Sar-vva-Sar-K(biotin)-pentadiamine [OR7],binding to coated aggregated α-synuclein,[1],detectable
same,"binding to preformed α-synuclein aggregates (streptavidin-gold, EM)",aggregated α-synuclein,bind to preformed α-synuclein aggregates; also recorded: binding
same,incubation after which observed in living cells,[5],4 h
same,binding to α-synuclein aggregates formed inside cells,[4],bind to α-synuclein aggregates formed inside cells
